This is an account of results in ChEMBL document CHEMBL5634091, “Cantharidin analogue alleviates dextran sulfate sodium-induced colitis in mice by inhibiting the activation of NF-κB signaling” (Eur J Med Chem, 2023).

The structures appear in SMILES notation. The source made the active and inactive calls. No cut-off for these calls is given here.

Series [1] has as its system HCT-116. In words: Inhibition of TNF-alpha induced MAPK signaling pathway activation in human HCT-116 cells assessed as decrease in phospho-JNK protein expression at 6.25 uM preincubated for 4 hrs and followed TNF-alpha stimulation and measured after 10 mins by Western blot analysis. Conditions: time 250.0 min. The class given is cell-based. On the technique in general: A western blot detects proteins with antibodies after separation by electrophoresis.

Series [2] deals with Mus musculus. In words: Anti-inflammatory activity in po dosed C57BL/6 mouse model of DSS-induced acute ulcerative colitis assessed as decrease in TNF-alpha expression in serum administered once a day for 7 days by ELISA. The settings on record: dose 100-300 mg/kg, time 7.0 day. The class given is functional, organism-based. On the technique in general: ELISA stands for enzyme-linked immunosorbent assay.

Series [3] is described as follows: Toxicity in Kunming mouse assessed as increase in body weight at 667 mg/kg, po measured for 15 days (reference value: 12.38%). The class given is organism-based. The settings on record: in vivo, 360 h, time 15 day.
Series [4] deals with HCT-116. Briefly: Inhibition of TNF-alpha induced NF-kB activation in human HCT-116 cells assessed as decrease in phosphorylated p65 protein expression preincubated for 4 hrs and followed TNF-alpha stimulation and measured after 10 mins by Western blot analysis. The class given is cell-based. Conditions: dose 12.5-50 µM, time 250.0 min.
In series [5] the test system is HCT-116. Briefly: Effect on IKK protein expression in TNF-alpha stimulated human HCT-116 cells at 12.5 to 50 uM preincubated for 4 hrs and followed TNF-alpha stimulation and measured after 10 mins by Western blot analysis. Conditions: dose 12.5-50 µM, time 250.0 min. The class given is functional, cell-based.
Series [6] deals with Mus musculus. In words: Anti-inflammatory activity in po dosed C57BL/6 mouse model of DSS-induced acute ulcerative colitis assessed as reduction in IL-1beta mRNA expression in colon administered once a day for 7 days by RT-PCR analysis. The class given is functional, organism-based. Conditions: dose 100-300 mg/kg, time 7.0 day.
Series [7] concerns Mus musculus. In words: Anti-inflammatory activity in po dosed C57BL/6 mouse model of DSS-induced acute ulcerative colitis assessed as reduction in IFN-gamma mRNA expression in colon administered once a day for 7 days by RT-PCR analysis. The class given is functional, organism-based. Conditions: dose 100-300 mg/kg, time 7.0 day.
Series [8] deals with Mus musculus. In words: Anti-inflammatory activity in C57BL/6 mouse model of DSS-induced acute ulcerative colitis assessed as reduction in hyperemia at 100 to 300 mg/kg, po administered once a day for 7 days by H and E staining based analysis. Conditions: dose 100-300 mg/kg, time 7.0 day. The class given is functional, organism-based.
Series [9] deals with HCT-116. In words: Inhibition of TNF-alpha-induced NF-kappaB nuclear translocation in human HCT-116 cells preincubated for 4 hrs followed by TNF-alpha stimulation and measured after 30 mins by immunofluorescence staining based laser scanning confocal microscopic analysis. The class given is cell-based. The settings on record: dose 25-50 µM, time 4.5 hrs.
Series [10] has as its system HCT-116. In words: Effect on p38 protein expression in TNF-alpha stimulated human HCT-116 cells at 6.25 to 50 uM preincubated for 4 hrs and followed TNF-alpha stimulation and measured after 10 mins by Western blot analysis. Conditions: dose 6.25-50 µM, time 250.0 min. The class given is functional, cell-based.
For series [11], the system named is HCT-116. In words: Inhibition of TNF-alpha induced activation of MAPK signaling pathway in human HCT-116 cells assessed as change in phosphorylated p38 level at 6.25 to 50 uM preincubated for 4 hrs and followed TNF-alpha stimulation and measured after 10 mins by Western blot analysis. The class given is cell-based. Conditions: dose 6.25-50 µM, time 250.0 min.

Series [12] in a line: Cytotoxicity against TNF-alpha induced HEK293T cells assessed as inhibition of cell growth preincubated for 24 hrs followed by TNFalpha stimulation and measured after 4 hrs by SRB assay. The class given is toxicity, cell-based, HEK-293T. The settings on record: human, HEK293T cells induced with TNF-alpha; time 28 hrs. A general note: In SRB staining, fixed cells bind dye roughly in proportion to their protein.

In series [13] the test system is DLD-1. Briefly: Inhibition of TNF-alpha induced NF-kB activation in human DLD-1 cells assessed as decrease in phosphorylated IKK protein expression preincubated for 4 hrs and followed TNF-alpha stimulation and measured after 10 mins by Western blot analysis. The settings on record: dose 12.5-50 µM, time 250.0 min. The class given is cell-based.
Series [14] relates to Mus musculus. Briefly: Anti-inflammatory activity in C57BL/6 mouse model of DSS-induced acute ulcerative colitis assessed as reduction in submucosal edema at 100 to 300 mg/kg, po administered once a day for 7 days by H and E staining based analysis. The class given is functional, organism-based. Conditions: dose 100-300 mg/kg, time 7.0 day.

As a reminder, the CC50 is the concentration at which the toxic effect on the cells reaches its halfway point. `COC(=O)C1=C(C(=O)OC)C2OC1CC2C#Cc1ccc(C)cc1` (centres undefined): in series [1], the inhibition entry is “Active”. Moreover, the Activity result in [2] was “Dose-Dependent Effect”; in series [3], 19.18%; in series [6], “Dose-Dependent Effect”; in series [7], “Dose-Dependent Effect”. Moreover, the inhibition entry in [4], in series [9] and in [13] was “Dose-Dependent Effect” throughout. Besides, the outcome in [5] and in [10] was inactive. The result in series [8] and in series [14] was Active. For the same molecule, in [11], the inhibition result was “inactive”. Besides, the 50% cytotoxic concentration (CC50) at 4 h in [12] worked out at 94.3 µM.
